Data published in paper PMC3835060 (2013).
Blank lines part the entries; values can stand above or below the molecule they belong to.

Experiments:
[1] = tested on: HTS (human telomere sequence) d[AG3(TTAG3)3] (DNA, G4) AGGGTTAGGGTTAGGGTTAGGG; assay: NMR titration (chemical shifts, intermolecular NOEs); conditions: 50 mM NaCl; pH 7, 283 K; binds at both loop ends
[2] = tested on: HTS (human telomere sequence) d[AG3(TTAG3)3] (DNA, G4) AGGGTTAGGGTTAGGGTTAGGG; assay: luminescence titration; conditions: 200 mM KCl, 10 mM potassium phosphate, 1 mM K2EDTA, pH 7.0, 298 K, error ±20%
[3] = tested on: HTS (human telomere sequence) d[AG3(TTAG3)3] (DNA, G4) AGGGTTAGGGTTAGGGTTAGGG; assay: NMR titration (chemical shifts, line broadening); conditions: 50 mM NaCl, pH 7, 298 K
[4] = 7 μM complex, one-set-of-sites fit

SMILES: [Ru+2].[Ru+2].c1ccc(-c2ccccn2)nc1.c1ccc(-c2ccccn2)nc1.c1ccc(-c2ccccn2)nc1.c1ccc(-c2ccccn2)nc1.c1cnc2c(c1)c1nc3c4cccnc4c4ncccc4c3nc1c1cccnc12
binding [1]: yes

Kb ([2]; apparent, diastereomeric mixture): 1.77 × 10^7 M^–1
SMILES: [Ru+2].[Ru+2].c1cnc2c(c1)c1nc3c4cccnc4c4ncccc4c3nc1c1cccnc12.c1cnc2c(c1)ccc1cccnc12.c1cnc2c(c1)ccc1cccnc12.c1cnc2c(c1)ccc1cccnc12.c1cnc2c(c1)ccc1cccnc12

binding ([3]; binds mainly at lateral loop end): yes
Kb [2, 4]: 2.95 × 10^5 M^–1
SMILES: [Ru+2].[Ru+2].c1cnc2c(c1)c1nc3c4cccnc4c4ncccc4c3nc1c1cccnc12.c1cnc2c(c1)ccc1cccnc12.c1cnc2c(c1)ccc1cccnc12.c1cnc2c(c1)ccc1cccnc12.c1cnc2c(c1)ccc1cccnc12 [ΔΔ-2]

binding ([3]; binds at both ends): yes
Kb [2, 4]: 1.16 × 10^7 M^–1
SMILES: [Ru+2].[Ru+2].c1cnc2c(c1)c1nc3c4cccnc4c4ncccc4c3nc1c1cccnc12.c1cnc2c(c1)ccc1cccnc12.c1cnc2c(c1)ccc1cccnc12.c1cnc2c(c1)ccc1cccnc12.c1cnc2c(c1)ccc1cccnc12 [ΛΛ-2]
